# Data published in patent US20250002475A1 (EPICS THERAPEUTICS, priority 2023, published 2025).
# How the values were obtained:
# [1] = target: T1, recombinant METTL3/METTL14 complex (Homo sapiens, UniProt Q86U44); experiment: METTL3/14 Scintillation Proximity Assay (SPA), RNA methyltransferase activity; assay type: biochemical; details: 5.31 nM METTL3/14 complex, 250 nM RNA substrate, 1 μM 3H-SAM, 90 min; for compounds marked * best of the two separated forms
# T1 construct: purchased Active Motif 311970; host or cells: Sf9 cells
# T1 sequence (Q86U44 whole entry): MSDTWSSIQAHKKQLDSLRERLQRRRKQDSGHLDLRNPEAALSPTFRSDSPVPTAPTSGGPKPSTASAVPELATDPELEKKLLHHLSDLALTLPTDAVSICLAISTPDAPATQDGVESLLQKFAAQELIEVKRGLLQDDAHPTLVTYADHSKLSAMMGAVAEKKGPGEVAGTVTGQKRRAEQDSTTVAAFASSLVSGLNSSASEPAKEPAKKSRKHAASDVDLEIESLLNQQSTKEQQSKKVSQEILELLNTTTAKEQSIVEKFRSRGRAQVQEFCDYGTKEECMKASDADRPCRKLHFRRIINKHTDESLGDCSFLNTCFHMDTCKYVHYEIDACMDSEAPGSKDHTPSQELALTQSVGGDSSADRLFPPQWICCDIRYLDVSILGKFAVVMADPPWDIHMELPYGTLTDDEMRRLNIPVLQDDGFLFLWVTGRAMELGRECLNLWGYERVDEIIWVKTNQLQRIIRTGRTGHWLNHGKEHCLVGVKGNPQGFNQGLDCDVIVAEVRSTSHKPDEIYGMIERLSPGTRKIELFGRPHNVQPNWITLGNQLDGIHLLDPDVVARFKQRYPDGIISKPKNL
# T1 sequence (Q9HCE5 whole entry partner): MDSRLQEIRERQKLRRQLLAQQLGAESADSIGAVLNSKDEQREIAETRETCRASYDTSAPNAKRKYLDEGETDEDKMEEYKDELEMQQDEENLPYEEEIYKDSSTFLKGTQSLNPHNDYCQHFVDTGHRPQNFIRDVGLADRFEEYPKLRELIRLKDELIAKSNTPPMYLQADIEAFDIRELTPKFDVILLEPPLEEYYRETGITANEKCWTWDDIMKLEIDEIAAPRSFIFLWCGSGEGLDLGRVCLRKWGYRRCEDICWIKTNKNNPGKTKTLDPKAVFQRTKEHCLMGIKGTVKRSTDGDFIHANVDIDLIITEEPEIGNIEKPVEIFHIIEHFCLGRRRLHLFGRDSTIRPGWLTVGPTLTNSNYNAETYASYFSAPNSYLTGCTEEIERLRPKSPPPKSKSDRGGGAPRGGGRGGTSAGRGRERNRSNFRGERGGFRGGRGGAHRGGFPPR
# Caov-3 cells = experiment: Caov-3 cellular viability assay (ATP-Lite, 72 h); assay type: cell-based; details: Homo sapiens, ATP-Lite luminescence, % viability relative to DMSO
# Outline: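 10000 cells/well treated 72 h at 37 °C, 5% CO2, in RPMI-1640 with 10% FBS and 0.1% DMSO final. Viability by ATP-Lite One Step luminescence. Expressed as % of DMSO control, with IC50 from each compound's concentration-response curve.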
# Kasumi-1 cells = experiment: Kasumi-1 cellular viability assay (ATP-Lite, 72 h); assay type: cell-based; details: Homo sapiens, ATP-Lite luminescence, % viability relative to DMSO
# Outline: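 Kasumi-1 AML cells, 15000/well in RPMI-1640 with 10% FBS, were exposed to compound titrations (0.1% final DMSO) for 72 h at 37 °C, 5% CO2. ATP-Lite One Step luminescence gave % viability versus DMSO control, and IC50 came from the concentration-response.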
IC50 [1] [nM],Structure (SMILES),IC50 (Caov-3 cells) [nM],IC50 (Kasumi-1 cells) [nM]
≤ 50,"CC(c1ccc(N2CCC[C@@H](NCC3CCC3)C2)nn1)n1cnc(-c2cncc(N(C)C)c2)c1 (stereo partly drawn) [Compound 173, 5-(1-(1-(6-((R)-3-((cyclobutylmethyl)amino)piperidin-1-yl)pyridazin-3-yl)ethyl)-1H-imidazol-4-yl)-N,N-dimethylpyridin-3-amine]",≤ 500,≤ 500
≤ 50,"CC(c1nnc(-c2cncc(N3CCCC3)n2)s1)n1ccc(N2CCC[C@@H](NCC3CC3)C2)cc1=O (stereo partly drawn) [Compound 228, 4-((R)-3-((cyclopropylmethyl)amino)piperidin-1-yl)-1-(1-(5-(6-(pyrrolidin-1-yl)pyrazin-2-yl)-1,3,4-thiadiazol-2-yl)ethyl)pyridin-2(1H)-one]",≤ 500,≤ 500
≤ 50,"CC(c1ccc(N2CCC[C@@H](NCC3CC3)C2)nn1)n1cnc(-c2cncc(C3CC3)c2)c1 (single isomer, unassigned) [Compound 342]",≤ 500,≤ 500
≤ 50,"c1cc(C2(n3cc(-c4cncc(N5CCCC5)n4)nn3)COC2)ncc1N1CCCC(NCC2CCC2)C1 (stereo in doubt) [Compound 290, (R)-N-(cyclobutylmethyl)-1-(6-(3-(4-(6-(pyrrolidin-1-yl)pyrazin-2-yl)-1H-1,2,3-triazol-1-yl)oxetan-3-yl)pyridin-3-yl)piperidin-3-amine]",≤ 500,≤ 500
≤ 50,"FC1(CN[C@@H]2CCCN(c3ccc(C4(n5cc(-c6cncc(C7CC7)c6)nn5)COC4)nc3)C2)CC1 [Compound 332, (R)-1-(6-(3-(4-(5-cyclopropylpyridin-3-yl)-1H-1,2,3-triazol-1-yl)oxetan-3-yl)pyridin-3-yl)-N-((1-fluorocyclopropyl)methyl)piperidin-3-amine]",≤ 500,≤ 500
≤ 50,"CC(c1ccc(N2CCC[C@@H](NCC3CCC3)C2)cn1)n1cc(-c2cncc(N3CCCC3)n2)nn1 (stereo partly drawn) [Compound 280, (3R)—N-(cyclobutylmethyl)-1-(6-(1-(4-(6-(pyrrolidin-1-yl)pyrazin-2-yl)-1H-1,2,3-triazol-1-yl)ethyl)pyridin-3-yl)piperidin-3-amine]",≤ 500,≤ 500
≤ 50,"CC(n1cc(-c2cncc(N3CCC(C)(C)C3)n2)nn1)n1ccc(N2CCC[C@@H](NCC3CC3)C2)cc1=O (single isomer, unassigned) [Compound 230]",≤ 500,≤ 500
≤ 50,"CC(c1ccc(N2CCC[C@@H](NCC3(C)CC3)C2)cn1)n1cnc(-c2cncc(N3CCCC3)n2)c1 (single isomer, unassigned) [Compound 365]",≤ 500,≤ 500
≤ 50,"COc1cc(-c2cn(Cc3cnc(N4CCCC(NCC5CCC5)C4)cn3)nn2)c2cn[nH]c2c1 (stereo not drawn) [Compound 047, N-(cyclobutylmethyl)-1-(5-((4-(6-methoxy-1H-indazol-4-yl)-1H-1,2,3-triazol-1-yl)methyl)pyrazin-2-yl)piperidin-3-amine]",> 5000,500 to 5000
≤ 50,"CC(n1cc(-c2cncc(N3CC(C(F)F)C3)c2)nn1)n1ccc(N2CCC[C@@H](NCC3CC3)C2)cc1=O (single isomer, unassigned) [Compound 209]",500 to 5000,500 to 5000
≤ 50,"CC(c1ccc(N2CCC[C@@H](NCC34CC(F)(C3)C4)C2)nn1)n1cc(-c2cncc(N3CCCC3)n2)nn1 (stereo partly drawn) [Compound 305, (3R)—N-((3-fluorobicyclo[1.1.1]pentan-1-yl)methyl)-1-(6-(1-(4-(6-(pyrrolidin-1-yl)pyrazin-2-yl)-1H-1,2,3-triazol-1-yl)ethyl)pyridazin-3-yl)piperidin-3-amine]",≤ 500,≤ 500
≤ 50,"CC(n1cnc(-c2cncc(N(C)C)n2)c1)n1ccc(N2CCC[C@@H](NCC3CC3)C2)cc1=O (single isomer, unassigned) [Compound 229]",≤ 500,≤ 500
